This note sets out measurements from patent US12338220B2, “Antiviral pyrazolopiridinone compounds” (Novartis AG, priority 2019, dated 2025).

For one test, the system named is CMV. Kind of test: microbe, parasite or virus in culture. Format: cell-based. Conditions: Human betaherpesvirus 5, 72 h, read-out: CMV-Luc Cellular EC50, NN-NHDF cells, MOI 1, 72 hrs.
Another test concerns the target HSV-polymerase (Human herpesvirus 1 (strain 17) (HHV-1) (Human herpes simplex virus 1), UniProt P04293). Nature of the test: biochemical.
The target of the next test is CMV-polymerase (Human cytomegalovirus (strain AD169) (HHV-5) (Human herpesvirus 5), UniProt P08546). Kind of test: biochemical.
Test [1] has as its system HCMV-Rluc virus (AD169 pp28-hRluc rUL131). Nature of the test: CMV Luciferase Assay of Compounds 243-262 in ARPE-19 cells. It is filed as cell-based. Conditions: read-out: CMV-Luc Cellular EC50 in ARPE-19. The procedure: CMV Luciferase Assay of Compounds 243-262.
Compounds 243-262 were tested in a luminescence assay as follows.
ARPE-19 cells were maintained in growth medium (DMEM/F12 Glutamax+10 fetal bovine serum (FBS)+PenStrep) and, before reaching full confluence, were transferred to a centrifuge tube and spun for 5 minutes at 1000 rpm. The cells were resuspended in assay medium (DMEM/F12 Glutamax+2% FBS+PenStrep) and counted. Cell density was adjusted to one million cells per milliliter and infected with HCMV-Rluc virus (AD169 pp28-hRluc rUL131; MOI 0.6) in a 50 ml conical tube for 2 hours while shaking. After dilution of the infectious suspension ten-fold (to 100,000 cells per milliliter), 8000 cells are directly plated in 384-well plates pre-spotted with the compound to be tested. The cells were incubated for 72 hours at 37 degrees Celsius. Cells were then placed at room temperature and allowed to equilibrate for 20 minutes before addition of the Renilla-Glo (Promega) reagent. After a 10-minute incubation at room temperature, luminescence was measured on a microplate reader.

Setting [2] is: read-out: HSV-polymerase Biochemical IC50.
Setting [3] is: read-out: CMV-polymerase Biochemical IC50.
The mark [4] stands for this setting: CMV-polymerase Biochemical IC50.
[5] abbreviates: Human betaherpesvirus 5, AD169, ARPE-19, 72 h.

Read-outs that look alike come from different tables or passages of the source.

The EC50 is the concentration giving half of the maximal effect. What is called IC50 is the concentration that gives 50% inhibition.

For the compound `Cn1nc(C2=NO[C@H](c3ccc(C#N)cc3)C2)c2c1C(=O)N(CC1(S(=O)(=O)C(C)(C)CO)CC1)CC2` [Example 108, (S)-4-(3-(6-((1-((1-hydroxy-2-methylpropan-2-yl)sulfonyl)cyclopropyl)methyl)-1-methyl-7-oxo-4,5,6,7-tetrahydro-1H-pyrazolo[3,4-c]pyridin-3-yl)-4,5-dihydroisoxazol-5-yl)benzonitrile], in the test with CMV, the 50% effective concentration (EC50) came to 0.032 µM. In addition, the figures for the half-inhibitory concentration (IC50) at HSV-polymerase (setting [2]) and on CMV-polymerase (setting [3]) were 0.047 µM and 0.001 µM, respectively. Take `Cn1nc(C(=O)NCc2ccc(Cl)cc2)c2c1C(=O)N(CC1(S(=O)(=O)C(C)(C)C(N)=O)CC1)CC2` [Example 109, 6-((1-((1-amino-2-methyl-1-oxopropan-2-yl)sulfonyl)cyclopropyl)methyl)-N-(4-chlorobenzyl)-1-methyl-7-oxo-4,5,6,7-tetrahydro-1H-pyrazolo[3,4-c]pyridine-3-carboxamide]: the EC50 in the test with CMV came out at 0.078 µM. Besides, the IC50 on HSV-polymerase was found to be 0.076 µM; on CMV-polymerase (setting [3]), 0.003 µM. As for `Cn1nc(C(=O)NCc2ccc(C#N)cc2)c2c1C(=O)N(CC1(S(=O)(=O)C(C)(C)CCO)CC1)CC2` [Example 113, N-(4-Cyanobenzyl)-6-((1-((4-hydroxy-2-methylbutan-2-yl)sulfonyl)cyclopropyl)methyl)-1-methyl-7-oxo-4,5,6,7-tetrahydro-1H-pyrazolo[3,4-c]pyridine-3-carboxamide], the concentration giving a half-maximal response (EC50) in the test with CMV is 0.036 µM. In addition, the 50% inhibitory concentration (IC50) on HSV-polymerase is 0.038 µM; at CMV-polymerase (setting [3]), 0.003 µM. For `CNS(=O)(=O)C1(CN2CCc3c(C(=O)NCc4ccc(C#N)cc4)nn(C)c3C2=O)CC1` [Example 123, N-(4-cyanobenzyl)-1-methyl-6-((1-(N-methylsulfamoyl)cyclopropyl)methyl)-7-oxo-4,5,6,7-tetrahydro-1H-pyrazolo[3,4-c]pyridine-3-carboxamide] the same measures were 0.157 µM, 0.196 µM and 0.009 µM. For `Cn1nc(C(=O)NCc2ccc(C#N)cc2)c2c1C(=O)N(CC1(S(=O)(=O)N3CC(O)C3)CC1)CC2` [Example 128, N-(4-Cyanobenzyl)-6-((1-((3-hydroxyazetidin-1-yl)sulfonyl)cyclopropyl)methyl)-1-methyl-7-oxo-4,5,6,7-tetrahydro-1H-pyrazolo[3,4-c]pyridine-3-carboxamide], the EC50 with CMV amounted to 0.094 µM. Also, the values for the concentration for half-maximal inhibition (IC50) against HSV-polymerase and on CMV-polymerase (setting [4]) were 0.137 µM and 0.005 µM, respectively. With `Cc1cc(NS(=O)(=O)C2(CN3CCc4c(C(=O)NCc5ccc(C#N)cc5)nn(C)c4C3=O)CC2)no1` [Example 165, N-(4-cyanobenzyl)-1-methyl-6-((1-(N-(5-methylisoxazol-3-yl)sulfamoyl)cyclopropyl)methyl)-7-oxo-4,5,6,7-tetrahydro-1H-pyrazolo[3,4-c]pyridine-3-carboxamide], the half-maximal effective concentration (EC50) in the test with CMV was determined as 0.136 µM. Moreover, the concentration for half-maximal inhibition (IC50) against HSV-polymerase came to 0.014 µM; at CMV-polymerase (setting [3]), 0.001 µM. On to `Cn1nc(C(=O)NCc2ccc(C#N)cc2)c2c1C(=O)N(CC1(S(=O)(=O)C3COC3)CC1)CC2` [Example 168, N-(4-cyanobenzyl)-1-methyl-6-((1-(oxetan-3-ylsulfonyl)cyclopropyl)methyl)-7-oxo-4,5,6,7-tetrahydro-1H-pyrazolo[3,4-c]pyridine-3-carboxamide], for which the EC50 in the test on CMV amounted to 0.072 µM. The half-maximal inhibitory concentration (IC50) was 0.097 µM on HSV-polymerase (setting [2]) and 0.004 µM at CMV-polymerase (setting [4]). Consider `C[C@H](NC(=O)c1nn(C)c2c1CCN(CC1(S(=O)(=O)C(C)(CO)CO)CC1)C2=O)c1ccc(Cl)cc1` [Example 177, (S)-N-(1-(4-Chlorophenyl)ethyl)-6-((1-((1,3-dihydroxy-2-methylpropan-2-yl)sulfonyl)cyclopropyl)methyl)-1-methyl-7-oxo-4,5,6,7-tetrahydro-1H-pyrazolo[3,4-c]pyridine-3-carboxamide], for which the EC50 with CMV stood at 0.168 µM. The 50% inhibitory concentration (IC50) against HSV-polymerase was 0.122 µM; at CMV-polymerase (setting [3]) it was 0.004 µM. For `C[C@@H](NC(=O)c1nn(C)c2c1CCN(CC1(S(=O)(=O)C(C)(CO)CO)CC1)C2=O)c1ccc(Cl)cc1` [Example 178, (R)-N-(1-(4-Chlorophenyl)ethyl)-6-((1-((1,3-dihydroxy-2-methylpropan-2-yl)sulfonyl)cyclopropyl)methyl)-1-methyl-7-oxo-4,5,6,7-tetrahydro-1H-pyrazolo[3,4-c]pyridine-3-carboxamide] the same measures were 9.72 µM, 8.06 µM and 0.24 µM. For the compound `Cn1nc(C(=O)NCc2ccc(C#N)cc2)c2c1C(=O)N(CC1(S(=O)(=O)Nc3cccc(CO)n3)CC1)CC2` [Example 243, N-(4-cyanobenzyl)-6-((1-(N-(6-(hydroxymethyl)pyridin-2-yl)sulfamoyl)cyclopropyl)methyl)-1-methyl-7-oxo-4,5,6,7-tetrahydro-1H-pyrazolo[3,4-c]pyridine-3-carboxamide], the concentration giving a half-maximal response (EC50) in test [1] (setting [5]) is 0.115 µM. In the case of `CC(=O)Nc1cccc(NS(=O)(=O)C2(CN3CCc4c(C(=O)NCc5ccc(C#N)cc5)nn(C)c4C3=O)CC2)n1` [Example 244, 6-((1-(N-(6-acetamidopyridin-2-yl)sulfamoyl)cyclopropyl)methyl)-N-(4-cyanobenzyl)-1-methyl-7-oxo-4,5,6,7-tetrahydro-1H-pyrazolo[3,4-c]pyridine-3-carboxamide], in test [1] (setting [5]), the concentration giving a half-maximal response (EC50) was 0.116 µM. `Cn1nc(C(=O)NCc2ccc(C#N)cc2)c2c1C(=O)N(CC1(S(=O)(=O)Nc3cnccn3)CC1)CC2` [Example 245, N-(4-cyanobenzyl)-1-methyl-7-oxo-6-((1-(N-(pyrazin-2-yl)sulfamoyl)cyclopropyl)methyl)-4,5,6,7-tetrahydro-1H-pyrazolo[3,4-c]pyridine-3-carboxamide]: the EC50 in test [1] (setting [5]) turned out to be 0.181 µM.

Consider `Cn1nc(C(=O)NCc2ccc(C#N)cc2)c2c1C(=O)N(CC1(S(=O)(=O)Nc3ccccc3)CC1)CC2` [Example 246, N-(4-cyanobenzyl)-1-methyl-7-oxo-6-((1-(N-phenylsulfamoyl)cyclopropyl)methyl)-4,5,6,7-tetrahydro-1H-pyrazolo[3,4-c]pyridine-3-carboxamide], for which the EC50 in test [1] (setting [5]) is 0.0745 µM. Consider `Cn1nc(C(=O)NCc2ccc(C#N)cc2)c2c1C(=O)N(CC1(S(=O)(=O)Nc3ncccc3F)CC1)CC2` [Example 247, N-(4-cyanobenzyl)-6-((1-(N-(3-fluoropyridin-2-yl)sulfamoyl)cyclopropyl)methyl)-1-methyl-7-oxo-4,5,6,7-tetrahydro-1H-pyrazolo[3,4-c]pyridine-3-carboxamide], for which the EC50 in test [1] (setting [5]) worked out at 0.388 µM. `Cn1nc(C(=O)NCc2ccc(C#N)cc2)c2c1C(=O)N(CC1(S(=O)(=O)Nc3ccccc3C#N)CC1)CC2` [Example 248, N-(4-cyanobenzyl)-6-((1-(N-(2-cyanophenyl)sulfamoyl)cyclopropyl)methyl)-1-methyl-7-oxo-4,5,6,7-tetrahydro-1H-pyrazolo[3,4-c]pyridine-3-carboxamide]: the EC50 in test [1] (setting [5]) amounted to 10 µM.

With `Cn1nc(C(=O)NCc2ccc(Cl)c(F)c2)c2c1C(=O)N(CC1(S(=O)(=O)C(C)(C)C(O)CO)CC1)CC2` (centres unmarked) [Example 249, N-(4-chloro-3-fluorobenzyl)-6-((1-((3,4-dihydroxy-2-methylbutan-2-yl)sulfonyl)cyclopropyl)methyl)-1-methyl-7-oxo-4,5,6,7-tetrahydro-1H-pyrazolo[3,4-c]pyridine-3-carboxamide], the EC50 in test [1] (setting [5]) was determined as 0.00824 µM. On the same count and under the same terms, the figure for `Cn1nc(C(=O)NCc2ccc(Cl)c(F)c2)c2c1C(=O)N(CC1(S(=O)(=O)C(C)(C)[C@H](O)CO)CC1)CC2` [Example 250, (R)—N-(4-chloro-3-fluorobenzyl)-6-((1-((3,4-dihydroxy-2-methylbutan-2-yl)sulfonyl)cyclopropyl)methyl)-1-methyl-7-oxo-4,5,6,7-tetrahydro-1H-pyrazolo[3,4-c]pyridine-3-carboxamide] is 0.0267 µM; for `Cn1nc(C(=O)NCc2ccc(Cl)c(F)c2)c2c1C(=O)N(CC1(S(=O)(=O)C(C)(C)[C@@H](O)CO)CC1)CC2` [Example 251, (S)—N-(4-chloro-3-fluorobenzyl)-6-((1-((3,4-dihydroxy-2-methylbutan-2-yl)sulfonyl)cyclopropyl)methyl)-1-methyl-7-oxo-4,5,6,7-tetrahydro-1H-pyrazolo[3,4-c]pyridine-3-carboxamide] it is 0.00983 µM. With `Cn1nc(C(=O)NCc2ccc(C#N)cc2)c2c1C(=O)N(CC1(S(=O)(=O)C(C)(C)C(O)CO)CC1)CC2` (centres unmarked) [Example 252, N-(4-cyanobenzyl)-6-((1-((3,4-dihydroxy-2-methylbutan-2-yl)sulfonyl)cyclopropyl)methyl)-1-methyl-7-oxo-4,5,6,7-tetrahydro-1H-pyrazolo[3,4-c]pyridine-3-carboxamide], in test [1] (ARPE-19 cells, MOI 0.6, 72 hours), the concentration giving a half-maximal response (EC50) was 0.0219 µM. Regarding `Cn1nc(C(=O)NCc2ccc(C#N)cc2)c2c1C(=O)N(CC1(S(=O)(=O)NC(C)(C)CC(N)=O)CC1)CC2` [Example 253, 6-((1-(N-(4-amino-2-methyl-4-oxobutan-2-yl)sulfamoyl)cyclopropyl)methyl)-N-(4-cyanobenzyl)-1-methyl-7-oxo-4,5,6,7-tetrahydro-1H-pyrazolo[3,4-c]pyridine-3-carboxamide], in test [1] (setting [5]), the EC50 worked out at 0.386 µM.
